Assay results as given in patent US20210244735A1, “COMPOSITIONS AND METHODS FOR TREATING MYELOFIBROSIS” (Impact Biomedicines, Inc., priority 2010, published 2021).
Entries after “also recorded” stand apart in the source; their conditions may differ. Where a name gives a salt, the structure may show the parent alone. Read-outs that look alike come from different tables or passages of the source. Marks after values point to notes of the source that are not given here.

System: subjects with MF
Details: for discontinuation: adverse event: number of subjects
[1] = at least possibly related, All Subjects (n=59)
[2] = at least possibly related, All Subjects, not transfusion dependent at study entry (n=37)
[3] = at least possibly related, MTD Cohort (n=40)
[4] = at least possibly related, MTD Cohort, not transfusion dependent at study entry (n=24)
[5] = at least possibly related, MTD cohort
[6] = at least possibly related, overall
[7] = number of patients who started at ≥680 mg
[8] = patients who started at ≥680 mg
[9] = started at ≥680 mg, 24 patients not requiring RBC transfusions at baseline
[10] = subject 106-024, 800/680 mg/day, onset day 87, recovered/resolved
[11] = treatment-emergent laboratory finding, MTD subjects (N=40)
[12] = treatment-emergent, MTD subjects (N=40)

Cc1cnc(Nc2ccc(OCCN3CCCC3)cc2)nc1Nc1cccc(S(=O)(=O)NC(C)(C)C)c1 [TG101348, N-tert-butyl-3-[(5-methyl-2-{[4-(2-pyrrolidin-1-ylethoxy)phenyl]amino}pyrimidin-4-yl)amino]benzenesulfonamide dihydrochloride monohydrate]
patients who discontinued treatment due to toxicity (59 patients, median follow-up 12 weeks): 7
subjects with serious adverse events considered at least possibly related (MF-TG101348-001 and -002): 8 subjects
Grades 3/4 asymptomatic increase in ALT (MTD cohort): 8%
Grades 3/4 asymptomatic increase in AST (MTD cohort): 3%
Grades 3/4 asymptomatic increase in alkaline phosphatase (MTD cohort): 0%
Grades 3/4 asymptomatic increase in creatinine (MTD cohort): 0%
Grades 3/4 asymptomatic increase in serum lipase (MTD cohort): 15%
subjects who required dose-reduction during the first 6 cycles (MTD cohort (n=40)): 70%
Anemia: New Transfusion Requirement on Study (MTD subjects not transfusion dependent at baseline (N=24), transfusion on at least 2 occasions for Hb <10 g/dL): 16 (67%) subjects (%)
maximum tolerated dose (MTD) (Phase I, myelofibrosis): 680 mg
Grade 3/4 neutropenia (all patients, Example 1 data): 14 % of patients
Grade 3/4 thrombocytopenia (all patients, Example 1 data): 25 % of patients
Grade 3/4 neutropenia considered related (all subjects): 10%
Grade 3/4 thrombocytopenia considered related (all subjects): 24%
Abdominal pain, Severity Grade 1- [1]: 6 (10.2%) subjects (%)
Abdominal pain, Severity Grade 3-4 [1]: 0 subjects (%)
Alanine aminotransferase increased, Severity Grade 1- [1]: 11 subjects (%)
Alanine aminotransferase increased, Severity Grade 3-4 [1]: 4 (6.8%) subjects (%)
Anorexia, Severity Grade 1- [1]: 8 (13.6%) subjects (%)
Anorexia, Severity Grade 3-4 [1]: 0 subjects (%)
Aspartate aminotransferase increased, Severity Grade 1- [1]: 15 subjects (%)
Aspartate aminotransferase increased, Severity Grade 3-4 [1]: 1 (1.7%) subjects (%)
Blood alkaline phosphatase increased, Severity Grade 1- [1]: 10 subjects (%)
Blood alkaline phosphatase increased, Severity Grade 3-4 [1]: 0 subjects (%)
Blood creatinine increased, Severity Grade 1- [1]: 14 subjects (%)
Blood creatinine increased, Severity Grade 3-4 [1]: 0 subjects (%)
Diarrhea, Severity Grade 1- [1]: 32 subjects (%)
Diarrhea, Severity Grade 3-4 [1]: 6 (10.2%) subjects (%)
Dry skin, Severity Grade 1- [1]: 6 (10.2%) subjects (%)
Dry skin, Severity Grade 3-4 [1]: 0 subjects (%)
Edema peripheral, Severity Grade 1- [1]: 6 (10.2%) subjects (%)
Edema peripheral, Severity Grade 3-4 [1]: 0 subjects (%)
Hyperlipasemia, Severity Grade 1- [1]: 10 subjects (%)
Hyperlipasemia, Severity Grade 3-4 [1]: 6 (10.2%) subjects (%)
Hypocalcemia, Severity Grade 1- [1]: 7 (11.9%) subjects (%)
Hypocalcemia, Severity Grade 3-4 [1]: 1 (1.7%) subjects (%)
Nausea, Severity Grade 1- [1]: 39 subjects (%)
Nausea, Severity Grade 3-4 [1]: 2 (3.4%) subjects (%)
Neutropenia, Severity Grade 1-2 [1]: 2 (3.4%) subjects (%)
Neutropenia, Severity Grade 3-4 [1]: 6 (10.2%) subjects (%)
Skin exfoliation, Severity Grade 1- [1]: 8 (13.6%) subjects (%)
Skin exfoliation, Severity Grade 3-4 [1]: 0 subjects (%)
Thrombocytopenia, Severity Grade 1-2 [1]: 10 (17.0%) subjects (%)
Thrombocytopenia, Severity Grade 3-4 [1]: 14 (23.7%) subjects (%)
Vomiting, Severity Grade 1- [1]: 32 subjects (%)
Vomiting, Severity Grade 3-4 [1]: 2 (3.4%) subjects (%)
Anemia, Severity Grade 1-2 [2]: 3 (8.1%) subjects (%)
Anemia, Severity Grade 3-4 [2]: 13 (35.1%) subjects (%)
Abdominal pain, Severity Grade 1-2 [3]: 4 (10.0%) subjects (%)
Abdominal pain, Severity Grade 3- [3]: 0 subjects (%)
Alanine aminotransferase increased, Severity Grade 1-2 [3]: 9 (22.5%) subjects (%)
Alanine aminotransferase increased, Severity Grade 3- [3]: 3 (7.5%) subjects (%)
Anorexia, Severity Grade 1-2 [3]: 6 (15.0%) subjects (%)
Anorexia, Severity Grade 3- [3]: 0 subjects (%)
Aspartate aminotransferase increased, Severity Grade 1-2 [3]: 13 subjects (%)
Aspartate aminotransferase increased, Severity Grade 3- [3]: 1 (2.5%) subjects (%)
Blood alkaline phosphatase increased, Severity Grade 1-2 [3]: 9 (22.5%) subjects (%)
Blood alkaline phosphatase increased, Severity Grade 3- [3]: 0 subjects (%)
Blood creatinine increased, Severity Grade 1-2 [3]: 11 subjects (%)
Blood creatinine increased, Severity Grade 3- [3]: 0 subjects (%)
Diarrhea, Severity Grade 1-2 [3]: 25 subjects (%)
Diarrhea, Severity Grade 3- [3]: 5 subjects (%)
Dry skin, Severity Grade 1-2 [3]: 6 (15%) subjects (%)
Dry skin, Severity Grade 3- [3]: 0 subjects (%)
Edema peripheral, Severity Grade 1-2 [3]: 4 (10.0%) subjects (%)
Edema peripheral, Severity Grade 3- [3]: 0 subjects (%)
Hyperlipasemia, Severity Grade 1-2 [3]: 9 (22.5%) subjects (%)
Hyperlipasemia, Severity Grade 3- [3]: 6 subjects (%)
Hypocalcemia, Severity Grade 1-2 [3]: 6 (15.0%) subjects (%)
Hypocalcemia, Severity Grade 3- [3]: 1 (2.5%) subjects (%)
Nausea, Severity Grade 1-2 [3]: 31 subjects (%)
Nausea, Severity Grade 3- [3]: 2 (5.0%) subjects (%)
Neutropenia, Severity Grade 1-2 [3]: 2 (5.0%) subjects (%)
Neutropenia, Severity Grade 3-4 [3]: 4 (10.0%) subjects (%)
Skin exfoliation, Severity Grade 1-2 [3]: 8 (20.0%) subjects (%)
Skin exfoliation, Severity Grade 3- [3]: 0 subjects (%)
Thrombocytopenia, Severity Grade 1-2 [3]: 8 (20.0%) subjects (%)
Thrombocytopenia, Severity Grade 3-4 [3]: 11 (27.5%) subjects (%)
Vomiting, Severity Grade 1-2 [3]: 27 subjects (%)
Vomiting, Severity Grade 3- [3]: 1 (2.5%) subjects (%)
Anemia, Severity Grade 1-2 [4]: 2 (8.3%) subjects (%)
Anemia, Severity Grade 3-4 [4]: 13 (54.2%) subjects (%)
grade 3 diarrhea [5]: 13 % of subjects
grade 3 nausea [5]: 5 % of subjects
grade 3 vomiting [5]: 3 % of subjects
grade 3 diarrhea [6]: 10 % of subjects
grade 3 nausea [6]: 3 % of subjects
grade 3 vomiting [6]: 3 % of subjects
subjects discontinued because of adverse events (extension study, 43 subjects, after 24 to 46 weeks on therapy): 3
subjects discontinued for treatment-related adverse events (first 6 cycles of therapy, 59 subjects): 6
diarrhea Gr3 [7]: 3
nausea Gr3 [7]: 1
vomiting Gr3 [7]: 1
discontinuation: adverse event (MTD (initiated at 680 or 800 mg/day), 40 enrolled): 5
discontinuation: adverse event (Overall, 59 enrolled): 6
Grade 3/4 anemia considered related (of 37 subjects who were not transfusion dependent at baseline): 35%
maximum tolerated dose (MTD) (oral once daily, dose cohorts 30 to 800 mg per day): 680 mg/day
Grades 3/4 asymptomatic increase in ALT (overall): 7%
Grades 3/4 asymptomatic increase in AST (overall): 2%
Grades 3/4 asymptomatic increase in alkaline phosphatase (overall): 0%
Grades 3/4 asymptomatic increase in creatinine (overall): 0%
Grades 3/4 asymptomatic increase in serum lipase (overall): 10%
Gr1/2 serum creatinine elevation [8]: 38%
Gr1/2 transaminitis [8]: 38%
Gr3 neutropenia [8]: 15%
Gr3 thrombocytopenia [8]: 20%
Gr4 neutropenia [8]: 0%
Gr4 thrombocytopenia [8]: 10%
asymptomatic hyperlipasemia [8]: 33%
dose-limiting toxicity (DLT) (seen at 800 mg/day, dihydrochloride monohydrate): asymptomatic grade 3 or 4 amylasemia/lipasemia that was reversible; also recorded: asymptomatic grade 3 or 4 hyperamylasemia (with or without hyperlipasemia) that was reversible
Grade 3 anemia [9]: 42 % of patients
Grade 4 anemia [9]: 8 % of patients
serious adverse event Neutropenia, CTCAE Severity Grade (subject 101-047, 680/680 mg/day, onset day 52, recovered/resolved): 2
serious adverse event Depression, CTCAE Severity Grade (subject 104-015, 360/520 mg/day, onset day 256, permanently discontinued, not recovered/not resolved): 3*
serious adverse event Hyperlipasemia, CTCAE Severity Grade (subject 105-013, 240/0 mg/day, onset day 356, recovered/resolved): 4
serious adverse event Thrombocytopenia, CTCAE Severity Grade (subject 105-013, starting dose/dose at event 240/360 mg/day, onset day 215, recovered/resolved): 4
serious adverse event Gallbladder pain, CTCAE Severity Grade (subject 105-056, 680/520 mg/day, onset day 95, recovered/resolved with sequelae): 3
serious adverse event Cerebrovascular accident, CTCAE Severity Grade (subject 105-056, 680/680 mg/day, onset day 22, recovered/resolved): 4
serious adverse event Hyperlipasemia, CTCAE Severity Grade (subject 105-059, 680/520 mg/day, onset day 28, recovered/resolved): 3
serious adverse event Hyperlipasemia, CTCAE Severity Grade (subject 105-059, 680/680 mg/day, onset day 8, recovered/resolved): 3
serious adverse event Dehydration, CTCAE Severity Grade (subject 106-024, 800/400 mg/day, onset day 474, recovered/resolved): 3
serious adverse event Tumor lysis syndrome, CTCAE Severity Grade (subject 106-024, 800/440 mg/day, onset day 366, recovered/resolved): 3
serious adverse event Dehydration, CTCAE Severity Grade [10]: 2
serious adverse event Diarrhea, CTCAE Severity Grade [10]: 3
serious adverse event Nausea, CTCAE Severity Grade [10]: 2
serious adverse event Vomiting, CTCAE Severity Grade [10]: 2
serious adverse event Pleuritic pain, CTCAE Severity Grade (subject 106-033, 680/680 mg/day, onset day 8, recovered/resolved): 2
serious adverse event Dehydration, CTCAE Severity Grade (subject 106-045, 680/440 mg/day, onset day 170, recovered/resolved): 3
cytokine rebound upon discontinuation without prior dose reduction or tapering (subjects that were discontinued): did not experience “cytokine rebound”
emergence of transfusion requirement (subjects who initiated treatment at 680 mg/day): 72%
emergence of transfusion requirement (subjects who initiated treatment at 240-520 mg/day): 33%
ALT increased Grade 2 [11]: 8 (20%) subjects (%)
ALT increased Grade 3 [11]: 2 (5%) subjects (%)
ALT increased Grade 4 [11]: 0 subjects (%)
AST increased Grade 2 [11]: 5 (13%) subjects (%)
AST increased Grade 3 [11]: 1 (3%) subjects (%)
AST increased Grade 4 [11]: 0 subjects (%)
Creatinine increased Grade 2 [11]: 11 (28%) subjects (%)
Creatinine increased Grade 3 [11]: 0 subjects (%)
Creatinine increased Grade 4 [11]: 0 subjects (%)
Hyperamylasemia Grade 2 [11]: 0 subjects (%)
Hyperamylasemia Grade 3 [11]: 1 (3%) subjects (%)
Hyperamylasemia Grade 4 [11]: 1 (3%) subjects (%)
Hyperkalemia Grade 2 [11]: 3 (8%) subjects (%)
Hyperkalemia Grade 3 [11]: 2 (5%) subjects (%)
Hyperkalemia Grade 4 [11]: 1 (3%) subjects (%)
Hyperlipasemia Grade 2 [11]: 4 (10%) subjects (%)
Hyperlipasemia Grade 3 [11]: 3 (8%) subjects (%)
Hyperlipasemia Grade 4 [11]: 2 (5%) subjects (%)
Hypocalcemia Grade 2 [11]: 8 (20%) subjects (%)
Hypocalcemia Grade 3 [11]: 3 (8%) subjects (%)
Hypocalcemia Grade 4 [11]: 0 subjects (%)
Abdominal pain Grade 1 [12]: 5 (13%) subjects (%)
Abdominal pain Grade 2 [12]: 0 subjects (%)
Abdominal pain Grade 3 [12]: 0 subjects (%)
Abdominal pain Grade 4 [12]: 0 subjects (%)
Anorexia Grade 1 [12]: 7 (18%) subjects (%)
Anorexia Grade 2 [12]: 0 subjects (%)
Anorexia Grade 3 [12]: 1 (3%) subjects (%)
Anorexia Grade 4 [12]: 0 subjects (%)
Constipation Grade 1 [12]: 6 (15%) subjects (%)
Constipation Grade 2 [12]: 1 (3%) subjects (%)
Constipation Grade 3 [12]: 0 subjects (%)
Constipation Grade 4 [12]: 0 subjects (%)
Contusion Grade 1 [12]: 5 (13%) subjects (%)
Contusion Grade 2 [12]: 0 subjects (%)
Contusion Grade 3 [12]: 0 subjects (%)
Contusion Grade 4 [12]: 0 subjects (%)
Diarrhea Grade 1 [12]: 21 (53%) subjects (%)
Diarrhea Grade 2 [12]: 4 (10%) subjects (%)
Diarrhea Grade 3 [12]: 5 (13%) subjects (%)
Diarrhea Grade 4 [12]: 0 subjects (%)
Edema peripheral Grade 1 [12]: 7 (18%) subjects (%)
Edema peripheral Grade 2 [12]: 1 (3%) subjects (%)
Edema peripheral Grade 3 [12]: 0 subjects (%)
Edema peripheral Grade 4 [12]: 0 subjects (%)
Fatigue Grade 1 [12]: 2 (5%) subjects (%)
Fatigue Grade 2 [12]: 3 (8%) subjects (%)
Fatigue Grade 3 [12]: 1 (3%) subjects (%)
Fatigue Grade 4 [12]: 0 subjects (%)
Headache Grade 1 [12]: 4 (10%) subjects (%)
Headache Grade 2 [12]: 1 (3%) subjects (%)
Headache Grade 3 [12]: 0 subjects (%)
Headache Grade 4 [12]: 0 subjects (%)
Nausea Grade 1 [12]: 20 (50%) subjects (%)
Nausea Grade 2 [12]: 6 (15%) subjects (%)
Nausea Grade 3 [12]: 2 (5%) subjects (%)
Nausea Grade 4 [12]: 0 subjects (%)
Neutropenia Grade 3 [12]: 6 (15%) subjects (%)
Neutropenia Grade 4 [12]: 0 subjects (%)
Proteinuria Grade 1 [12]: 2 (5%) subjects (%)
Proteinuria Grade 2 [12]: 3 (8%) subjects (%)
Proteinuria Grade 3 [12]: 0 subjects (%)
Proteinuria Grade 4 [12]: 0 subjects (%)
Thrombocytopenia Grade 3 [12]: 8 (20%) subjects (%)
Thrombocytopenia Grade 4 [12]: 5 (13%) subjects (%)
Vomiting Grade 1 [12]: 20 (50%) subjects (%)
Vomiting Grade 2 [12]: 7 (18%) subjects (%)
Vomiting Grade 3 [12]: 1 (3%) subjects (%)
Vomiting Grade 4 [12]: 0 subjects (%)
